Each molecule was assayed against hOGG1 (Homo sapiens, UniProt O15527) (assay: Biochemical fluorescence assay to measure enzymatic activity of hOGG1 (OGG1/APEX IC50)). Conditions: 1 nM OGG1+2 nM APEX+6 nM dsDNA (8-oxo-dG substrate); pH 7.5; RT 40 min; read-out: OGG1/APEX IC50.
Design: Protein His-hOGG1 (12-323) was prepared; His (N); host or cells: E. coli
Experimental: Biological Example 1: Biochemical Assay to Measure Enzymatic Activity of hOGG1 (OGG1/APEX IC50)
The reported fluorescence-based assay (Donley et al ACS Chem Biol 2015; 10 (10), 2334-2343) was modified to include hAPE1/APEX1 protein. The oligonucleotide substrate with 8-oxo-dG lesion at X was prepared (LGC Biosearch, Petaluma, CA):
Protein His-hOGG1 (12-323) was prepared by Chempartner Corporation via E. coliexpression and purification by Ni-NTA and S200 column to afford 95% purity by SDS-PAGE and SEC-HPLC analysis and hAPE1/APEX1 was purchased (SinoBiological). The assay was run in 384-well plates following the general procedure: (1) compound dilution; (2) addition of hOGG1/APEX1 to compound wells; (3) addition of DNA substrate to compound wells; (4) read Ex520/Em600 (TAMRA) fluorescence signal after 40 minutes; (5) calculate % inhibition/compound concentration; (6) calculate dose-response curve and IC50 value.
• (1) 20 mM of compound solution was prepared in DMSO; • (2) Compounds were diluted to 10 mM in DMSO in ECHO Source plate (Labcyte PP-0200), by mixing […] DMSO; • (3) 4× dilution of compounds, for 10 points, by mixing […] DMSO; and • (4) Dispensed 150 nL compounds to assay plate (Corning 3573) in column 3-22. Dispensed 150 nL DMSO to Min and Max control wells in column 1-2 and column 23-24.
• (1) Assay buffer was prepared (20 mM Tris pH 7.5, 100 mM KCl, 0.1% BSA, 0.01% Tween). • (2) […] buffer was added to Min control wells (Column 1-2). • (3) Enzyme was diluted to 2× with buffer (2 nM OGG1+4 nM APEX1). Dispensed […] (except Min control wells). Shake at 500 rpm at RT for 20 min. • (4) DNA substrate diluted to 2× with buffer (12 nM). Dispensed […]. Final concentration: 1 nM OGG1+2 nM APEX+6 nM dsDNA. Shake at RT for 40 min. • (5) Ex520/Em600 (TAMRA) was read.
• (1) Calculated respective mean of Max and Min control wells. • (2) Converted data to percentage inhibition.
Inhibition (%)=(Max mean−value)/(Max mean−Min mean)×100% • (3) Calculated sigmoidal curve (3-parameter) and IC50 (using GraphPad Prism software).

hOGG1, sequence (O15527 12-323): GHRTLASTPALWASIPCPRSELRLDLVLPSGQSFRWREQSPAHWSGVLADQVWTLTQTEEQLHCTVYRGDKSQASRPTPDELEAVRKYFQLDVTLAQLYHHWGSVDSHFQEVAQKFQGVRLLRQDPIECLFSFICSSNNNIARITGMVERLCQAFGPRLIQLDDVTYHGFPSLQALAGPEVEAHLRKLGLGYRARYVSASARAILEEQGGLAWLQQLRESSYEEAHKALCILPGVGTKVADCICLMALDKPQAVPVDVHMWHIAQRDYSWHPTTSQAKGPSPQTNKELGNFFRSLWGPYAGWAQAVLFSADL

First: COc1cc(NC(=O)[C@H]2CC[C@@H](N3Cc4c(Br)cc(NC(=O)Cn5ccnc5)cc4C3=O)CC2)ccc1C [Example 196, (1s,4s)-4-(6-(2-(1H-Imidazol-1-yl)acetamido)-4-bromo-1-oxoisoindolin-2-yl)-N-(3-methoxy-4-methylphenyl)cyclohexanecarboxamide]
Second: COc1cc(NC(=O)[C@H]2CC[C@@H](N3Cc4c(Br)cc(NC5CNC5)cc4C3=O)CC2)ccc1C [Example 180, (1s,4s)-4-(6-(Azetidin-3-ylamino)-4-bromo-1-oxoisoindolin-2-yl)-N-(3-methoxy-4-methylphenyl)cyclohexanecarboxamide]
The IC50 of the first is higher: 0.1 to 1 µM for the first, under 0.1 µM for the second.

First: Cc1ccc(NC(=O)[C@H]2CC[C@@H](N3Cc4c(C)cccc4C3=O)CC2)cc1C [Example 236, (1s,4s)-N-(3,4-Dimethylphenyl)-4-(4-methyl-1-oxoisoindolin-2-yl)cyclohexanecarboxamide]
Second: COc1ccc(NC(=O)[C@H]2CC[C@@H](N3Cc4c(C)cccc4C3=O)CC2)cc1F [Example 224, (1s,4s)-N-(3-Fluoro-4-methoxyphenyl)-4-(4-methyl-1-oxoisoindolin-2-yl)cyclohexanecarboxamide]
The IC50 of the first is higher: 1 to 10 µM for the first, 0.1 to 1 µM for the second.

`Cc1cccc2c1CN([C@H]1CC[C@@H](C(=O)Nc3ccc(Cl)c(C#N)c3)CC1)C2=O` [Example 263, (1s,4s)-N-(4-Chloro-3-cyanophenyl)-4-(4-methyl-1-oxoisoindolin-2-yl)cyclohexanecarboxamide] and `COc1cc(NC(=O)[C@H]2CC[C@@H](N3Cc4c(C)cccc4C3=O)CC2)ccc1Cl` [Example 223, (1s,4s)-N-(4-Chloro-3-methoxyphenyl)-4-(4-methyl-1-oxoisoindolin-2-yl)cyclohexanecarboxamide] fall in the same range of IC50: 0.1 to 1 µM for the first, 0.1 to 1 µM for the second.

`Cc1cccc2c1CN([C@H]1CC[C@@H](C(=O)Nc3ccc(Cl)c(F)c3)CC1)C(=O)N2` [Example 90, (1s,4s)-N-(4-chloro-3-fluorophenyl)-4-(5-methyl-2-oxo-1,2-dihydroquinazolin-3(4H)-yl)cyclohexanecarboxamide] and `COc1ccc(NC(=O)[C@H]2CC[C@@H](N3Cc4c(C)cccc4NC3=O)CC2)cc1F` [Example 89, (1s,4s)-N-(3-fluoro-4-methoxyphenyl)-4-(5-methyl-2-oxo-1,2-dihydroquinazolin-3(4H)-yl)cyclohexanecarboxamide] fall in the same range of IC50: 0.1 to 1 µM for the first, 0.1 to 1 µM for the second.

`COc1ccc(NC(=O)[C@H]2CC[C@@H](N3Cc4c(C)cccc4C3=O)CC2)cc1C(F)(F)F` [Example 231, (1s,4s)-N-(4-Methoxy-3-(trifluoromethyl)phenyl)-4-(4-methyl-1-oxoisoindolin-2-yl)cyclohexanecarboxamide] and `COc1cc(NC(=O)[C@H]2CC[C@@H](N3Cc4c(Cl)cccc4C3=O)CC2)ccc1C` [Example 149, (1s,4s)-4-(4-Chloro-1-oxoisoindolin-2-yl)-N-(3-methoxy-4-methylphenyl)cyclohexanecarboxamide] fall in the same range of IC50: 0.1 to 1 µM for the first, 0.1 to 1 µM for the second.

`COc1cc(NC(=O)C[C@H]2C[C@H](N3Cc4c(Br)cccc4C3=O)C2)ccc1C` [Example 187, 2-((1r,3r)-3-(4-Bromo-1-oxoisoindolin-2-yl)cyclobutyl)-N-(3-methoxy-4-methylphenyl)acetamide] and `COc1cc(NC(=O)[C@@H]2[C@@H]3C[C@H](N4Cc5c(Br)cccc5C4=O)C[C@@H]32)ccc1C` (single isomer, unassigned) [Example 267] cannot be ordered by IC50: over 10 µM for the first, over 10 µM for the second.

First: COc1cc(NC(=O)[C@H]2CC[C@H](N3Cc4c(C)cc(C5COC5)cc4NC3=O)CC2)ccc1C [Example 110, (1r,4r)-N-(3-methoxy-4-methylphenyl)-4-(5-methyl-7-(oxetan-3-yl)-2-oxo-1,2-dihydroquinazolin-3(4H)-yl)cyclohexanecarboxamide]
Second: COc1cc(NC(=O)[C@H]2CC[C@@H](N3Cc4c(C)cccc4NC3=O)CC2)ccc1C [Example 69, (1s,4s)-N-(3-methoxy-4-methylphenyl)-4-(5-methyl-2-oxo-1,2-dihydroquinazolin-3(4H)-yl)cyclohexanecarboxamide]
The IC50 of the first is higher: 1 to 10 µM for the first, under 0.1 µM for the second. The second is the more potent here.

`COc1cc(NC(=O)[C@H]2CC[C@@H](N3Cc4c(CF)cccc4C3=O)CC2)ccc1C` [Example 166, (1s,4s)-4-(4-(Fluoromethyl)-1-oxoisoindolin-2-yl)-N-(3-methoxy-4-methylphenyl)cyclohexanecarboxamide] and `CCc1cccc2c1CN([C@H]1CC[C@@H](C(=O)Nc3ccc(C)c(OC)c3)CC1)C2=O` [Example 156, (1s,4s)-4-(4-Ethyl-1-oxoisoindolin-2-yl)-N-(3-methoxy-4-methylphenyl)cyclohexanecarboxamide] fall in the same range of IC50: 1 to 10 µM for the first, 1 to 10 µM for the second.

First: COc1ccc(NC(=O)[C@]2(C)CC[C@@H](N3Cc4c(C)cccc4NC3=O)CC2)cc1C#N (single isomer, unassigned) [Example 108, (1r,4r)-N-(3-cyano-4-methoxyphenyl)-1-methyl-4-(5-methyl-2-oxo-1,2-dihydroquinazolin-3(4H)-yl)cyclohexanecarboxamide]
Second: COc1cc(NC(=O)[C@]2(C)CC[C@@H](N3Cc4c(C)cccc4C3=O)CC2)ccc1C [Example 278, (1r,4r)-N-(3-methoxy-4-methylphenyl)-1-methyl-4-(4-methyl-1-oxoisoindolin-2-yl)cyclohexane-1-carboxamide]
The IC50 of the first is higher: over 10 µM for the first, 1 to 10 µM for the second. The second is the more potent here.

Going from `COc1cc(NC(=O)[C@@H]2CC[C@@H](N3Cc4c(C)cc(NCCN(C)C)cc4C3=O)C2)ccc1C` [Example 139, (1R,3R)-3-(6-((2-(Dimethylamino)ethyl)amino)-4-methyl-1-oxoisoindolin-2-yl)-N-(3-methoxy-4-methylphenyl)cyclopentanecarboxamide] to `COc1ccc(NC(=O)[C@H]2CC[C@@H](N3Cc4c(C)cc(NCCN(C)C)cc4C3=O)CC2)cc1F` [Example 257, (1s,4s)-4-(6-(2-(Dimethylamino)ethylamino)-4-methyl-1-oxoisoindolin-2-yl)-N-(3-fluoro-4-methoxyphenyl)cyclohexanecarboxamide], the IC50 falls from over 10 µM to under 0.1 µM.

`COc1cc(NC(=O)[C@H]2CC[C@@H](N3Cc4c(C)cnc(CNS(C)(=O)=O)c4NC3=O)CC2)ccc1C` [Example 18, (1s,4s)-N-(3-Methoxy-4-methylphenyl)-4-(5-methyl-8-(methylsulfonamidomethyl)-2-oxo-1,2-dihydropyrido[3,4-d]pyrimidin-3(4H)-yl)cyclohexanecarboxamideoxamide] and `C=Cc1ccc(C)c2c1NC(=O)N([C@H]1CC[C@@H](C(=O)Nc3ccc(C)c(OC)c3)CC1)C2` [Example 55, (1s,4s)-N-(3-Methoxy-4-methylphenyl)-4-(5-methyl-2-oxo-8-vinyl-1,2-dihydroquinazolin-3(4H)-yl)cyclohexanecarboxamide] cannot be ordered by IC50: under 0.1 µM for the first, under 0.1 µM for the second.

`COc1cc(NC(=O)[C@H]2CC[C@@H](N3Cc4c(ccc(C#N)c4C)NC3=O)CC2)ccc1C` [Example 56, (1s,4s)-4-(6-Cyano-5-methyl-2-oxo-1,2-dihydroquinazolin-3(4H)-yl)-N-(3-methoxy-4-methylphenyl)cyclohexanecarboxamide] and `COc1cc(NC(=O)[C@H]2CC[C@@H](N3Cc4c(ccc(O)c4Br)C3=O)CC2)ccc1C` [Example 189, (1s,4s)-4-(4-Bromo-5-hydroxy-1-oxoisoindolin-2-yl)-N-(3-methoxy-4-methylphenyl)cyclohexanecarboxamide] fall in the same range of IC50: 0.1 to 1 µM for the first, 0.1 to 1 µM for the second.

`Cc1cccc2c1CN([C@H]1CC[C@@H](C(=O)Nc3ccc(Cl)cc3)CC1)C2=O` [Example 216, (1s,4s)-N-(4-Chlorophenyl)-4-(4-methyl-1-oxoisoindolin-2-yl)cyclohexanecarboxamide] and `COc1cc(NC(=O)[C@H]2CC[C@@H](N3Cc4c(C)cc(CO)cc4C3=O)CC2)ccc1C` [Example 214, (1s,4s)-4-(6-(Hydroxymethyl)-4-methyl-1-oxoisoindolin-2-yl)-N-(3-methoxy-4-methylphenyl)cyclohexanecarboxamide] fall in the same range of IC50: 0.1 to 1 µM for the first, 0.1 to 1 µM for the second.

With `COc1cc(NC(=O)[C@H]2CC[C@@H](N3Cc4c(Br)cc([N+](=O)[O-])cc4C3=O)CC2)ccc1C` [Example 163, (1s,4s)-4-(4-Bromo-6-nitro-1-oxoisoindolin-2-yl)-N-(3-methoxy-4-methylphenyl)cyclohexanecarboxamide] the IC50 was 0.1 to 1 µM.

From patent US20260317356A1, “SMALL MOLECULE MODULATORS OF OGG1” (AZKARRA THERAPEUTICS, INC., priority 2023, published 2026)
